In patent US9045555B2, “Vaccine against amyloid folding intermediate” (priority 2008, dated 2015):

Experiments:
[1] = ELISA of sera of immunized mice, coating homologous peptide-BSA conjugates (anti-peptide titre); type: in vivo, Balb/c mice
oligomeric Aβ 1-42 = assay: ELISA of sera of immunized mice, coating oligomeric Aβ 1-42 (cross-reactivity); type: in vivo, Balb/c mice; conditions: in vitro ELISA
fibrillar Aβ 1-42 = assay: ELISA of sera of immunized mice, coating fibrillar Aβ 1-42 (cross-reactivity); type: in vivo, Balb/c mice; conditions: in vitro ELISA
[2] = test system: Aβ deposits in post-mortem AD human brain tissue (hippocampus); assay: Immunohistochemical staining of human AD brain sections with sera of immunized mice; conditions: mouse serum 1:300, hippocampus cryosections, Braak 5 or 6; positive control 6E10
Description: FIG. 6: Immunohistochemical staining of human brain section donor 99-30 (Braak 6) with a mouse serum (1:300) immunized with cyclo[Aβ(22-28)-YNGK]/tetanus toxoid conjugate (a) and the control monoclonal 6E10 (1:15.000) in (b). […] (Microscope: Leica DMRE fitted with a DC300 camera)
Human brain sections of the hippocampus of several donors with Alzheimer disease (Braak 5 or 6) were used (Netherlands Brain Bank). Cryosections (10 μm) were cut from unfixed directly frozen tissue, thaw-mounted, dried for 1 hour and stored in a sealed box at −20 C. For immunostaining, sections were fixed in 4% PFA-PBS solution for 10 min, washed in 0.05 M phosphate buffer (PB) for 10 min with 2 exchanges and blocked with 10% normal donkey serum (NDS)+0.4% TritonX100 in 0.05M PB for 1 hour at RT. The blocking solution was discarded and diluted mouse sera (1:300; first antibody) in 3% NDS+0.4% TritonX100 in 0.05 M PB was added and incubated 0/N at RT in a box with wet tissues. Sections were washed with 0.05M PB; at least 30 min with one or more exchanges. Then sections were incubated with Donkey-anti-Mouse˜Cy3 1:1400 in 0.05 M PB for 2 hours. Sections were washed with 0.05M PB; at least 30 min with one or more exchanges. Sections were sealed in Vectashield with Dapi (Vector). Mouse Monoclonal 6E10 to beta amyloid 1-17 (Abcam, Cambridge, UK) was used as positive control (1:15,000).

[3] = test system: conformational epitope of Aβ 1-42; assay: Antibody response in mice recognizing a conformational epitope of Aβ 1-42; type: in vivo; conditions: epitope as expressed in monomer, soluble oligomer, fibrils or neurodegenerative plaques

Row | Substance | antipeptide antibody titers / antibody response to the immunizing peptide [1] | cross-reaction of elicited antibodies with Aβ (1-42)-oligomers (oligomeric Aβ 1-42) | cross-reaction of elicited antibodies with Aβ (1-42)-fibrils (fibrillar Aβ 1-42) | recognition of Aβ deposits / plaques in AD human brain tissue by elicited antibodies [2] | induction of an antibody response in mice specifically recognizing a conformational epitope of Aβ 1-42 [3]
1 | Ac-K*EDVGSNKYNG-NH2 (Ac-K(tetanus toxoid)EDVGSNKYNG-NH2) [group 3, tetanus toxoid conjugate of the linear N-acetylated peptide amide] | good | did not recognize | did not recognize |  | 
2 | cyclo[EDVGSNKYNGK*] (cyclo(EDVGSNKYNGK(tetanus toxoid))) [group 9, tetanus toxoid conjugate of the cyclic peptide [Aβ(22-28)-YNGK*]] |  | cross-react | cross-react | recognize | able to induce an antibody response
